Reference: ChEMBL document CHEMBL5500412, “Discovery of Highly Selective, Potent, Covalent, and Orally Bioavailable Factor XIIa Inhibitors for the Treatment of Thrombo-Inflammation” (J Med Chem, 2024)
pIC50: −log10 of the molar value. Active and inactive are the calls of the source. No cut-off for these calls is given here.

Assays:
[1] = biological target: Chymotrypsin (Homo sapiens, UniProt Q99895+P17538+P40313+Q6GPI1); test: Inhibition of Chymotrypsin (unknown origin) using N-Suc-Ala-Ala-Pro-Phe-pNA as chromogenic substrate incubated for 20 mins followed by substrate addition by spectrophotometric analysis; format: protein assay
[2] = tested on: Plasma; test: Anticoagulant activity in human plasma assessed as prolongation of activated partial thromboplastin time at 300 uM incubated for 2 mins by aPTT reagent based assay relative to control; format: functional
[3] = Selectivity index, ratio of IC50 for tPA (unknown origin) to IC50 for FXIIa (unknown origin)
[4] = tested on: Plasma; test: Anticoagulant activity in non-activated human plasma at 10 to 25 uM measured after 260 mins; format: functional, cell-free; conditions: dose 10-25 µM
[5] = Stability of the compound in water under […] condition at pH 11 measured after 48 hrs; format: physicochemical; conditions: buffer, pH 11, 48 h
[6] = tested on: Plasma; test: Anticoagulant activity in human plasma assessed as prolongation of […] time at 300 uM incubated for 2 mins by PT reagent based assay; format: functional, cell-free
[7] = Selectivity index, ratio of IC50 for FXIa (unknown origin) to IC50 for FXIIa (unknown origin)
[8] = tested on: Plasma; test: Anticoagulant activity in non-activated human plasma assessed as prolongation of activated partial thromboplastin time measured after 260 mins; format: functional; conditions: 4.333 h
[9] = tested on: RAW264.7; test: Antiinflammatory activity in mouse RAW264.7 cells assessed as inhibition of LPS-induced IL-6 expression at 10 uM preincubated for 12 hrs followed by LPS stimulation and measured after 12 hrs by real time quantitative RT-PCR assay; format: functional, cell-based; conditions: time 24.0 hrs
[10] = tested on: RAW264.7; test: Antiinflammatory activity in mouse RAW264.7 cells assessed as inhibition of LPS-induced IL-1 beta expression at 10 uM preincubated for 12 hrs followed by LPS stimulation and measured after 12 hrs by real time quantitative RT-PCR assay; format: functional, cell-based; conditions: time 24.0 hrs
[11] = Selectivity index, ratio of IC50 for thrombin (unknown origin) to IC50 for FXIIa (unknown origin)
[12] = biological target: Tissue-type plasminogen activator (Homo sapiens, UniProt P00750); test: Inhibition of tPA (unknown origin) using H-D-lle-Pro-Arg-pNA-2HCl as chromogenic substrate incubated for 20 mins followed by substrate addition by spectrophotometric analysis
[13] = tested on: Plasma; test: Anticoagulant activity in human plasma assessed as prolongation of activated partial thromboplastin time incubated for 2 mins by aPTT reagent based assay; format: functional
[14] = Selectivity index, ratio of IC50 for FXa (unknown origin) to IC50 for FXIIa (unknown origin)
[15] = biological target: Plasma kallikrein (Homo sapiens, UniProt P03952); test: Inhibition of PKal (unknown origin) using H-D-Pro-Phe-Arg-pNA-2HCl as substrate incubated for 20 mins followed by substrate addition by spectrophotometric analysis
[16] = tested on: Mus musculus; test: Antithrombotic activity in carrageenan induced thrombosis in male BALB/c mouse model assessed as reduction in tail thrombosis administered as IG dose preadministered with PBS for 7 days followed by carrageenan stimulation on day 7 and measured after 2 days post compound administration; format: functional, organism-based; conditions: dose 10-30 mg/kg, time 2.0 day
[17] = tested on: Mus musculus; test: Antiinflammatory activity in carrageenan-induced thrombosis in male BALB/c mouse model assessed as reduction in IL-6 level at 20 mg/kg, po by ELISA method; format: functional, organism-based
[18] = tested on: Plasma; test: Selectivity ratio of anticoagulant activity in non-activated human plasma at 10 to 25 uM measured after 260 mins to anticoagulant activity in non-activated human plasma at 10 to 25 uM measured after 2 mins; format: functional; conditions: dose 10-25 µM, 4.333 h
[19] = tested on: RAW264.7; test: Antiinflammatory activity in mouse RAW264.7 cells assessed as inhibition of LPS-induced IL-1 beta expression preincubated for 12 hrs followed by LPS stimulation and measured after 12 hrs by real time quantitative RT-PCR assay; format: functional, cell-based; conditions: dose 5-10 µM, time 24.0 hrs
[20] = biological target: Plasminogen (Homo sapiens, UniProt P00747); test: Inhibition of plasmin (unknown origin) using PyroGlu-Phe-Lys-pNA.HCl as chromogenic substrate incubated for 20 mins followed by substrate addition by spectrophotometric analysis
[21] = biological target: Prothrombin (Homo sapiens, UniProt P00734); test: Inhibition of thrombin (unknown origin) using H-D-Phe-Pip-Arg-pNA-2HCl as substrate incubated for 20 mins followed by substrate addition by spectrophotometric analysis
[22] = tested on: RAW264.7; test: Antiinflammatory activity in mouse RAW264.7 cells assessed as inhibition of LPS-induced IL-6 expression preincubated for 12 hrs followed by LPS stimulation and measured after 12 hrs by real time quantitative RT-PCR assay; format: functional, cell-based; conditions: dose 5-10 µM, time 24.0 hrs
[23] = Selectivity index, ratio of IC50 for plasmin (unknown origin) to IC50 for FXIIa (unknown origin)
[24] = tested on: Mus musculus; test: Antithrombotic activity in carrageenan induced thrombosis in male BALB/c mouse model assessed as thrombosis rate at 30 mg/kg, IG preadministered with PBS for 7 days followed by carrageenan stimulation on day 7 and measured after 2 days post compound administration relative to control; format: functional; conditions: time 2 day
[25] = Selectivity index, ratio of IC50 for trypsin (unknown origin) to IC50 for FXIIa (unknown origin)
[26] = biological target: Coagulation factor XI (Homo sapiens, UniProt P03951); test: Inhibition of FXIa (unknown origin) using p-Glu-Pro-Arg-pNA.HCl as chromogenic substrate incubated for 20 mins followed by substrate addition by spectrophotometric analysis
[27] = tested on: RAW264.7; test: Cytotoxicity against mouse RAW264.7 cells assessed as reduction in cell viability at upto 40 uM by CCK-8 assay; format: toxicity, cell-based; conditions: raw264.7, 40 µM
[28] = tested on: Mus musculus; test: Antithrombotic activity in carrageenan induced thrombosis in male BALB/c mouse model assessed as inhibition of tail thrombosis at 20 mg/kg, IG administered for 9 days with carrageenan stimulation on day 7 by H and E staining based analysis; format: functional, organism-based; conditions: time 9.0 day
[29] = tested on: Plasma; test: Anticoagulant activity in human blood plasma at 75 uM measures upto 20 mins by aPTT reagent based analysis; format: functional, cell-free
[30] = biological target: Coagulation factor X (Homo sapiens, UniProt P00742); test: Inhibition of FXa (unknown origin) using Z-D-Arg-Gly-Arg-pNA.2HCl as chromogenic substrate incubated for 20 mins followed by substrate addition by spectrophotometric analysis
[31] = Stability of the compound in water at pH 5 to 7 measured after 48 hrs; format: physicochemical; conditions: buffer, pH 5, 48 h
[32] = biological target: Trypsin (Homo sapiens, UniProt P07477+P07478+P35030); test: Inhibition of trypsin (unknown origin) using Bz-lle-Glu(gamma-OR)-Gly-Arg-pNA.HCl as chromogenic substrate incubated for 20 mins followed by substrate addition by spectrophotometric analysis; format: protein assay
[33] = tested on: Plasma; test: Anticoagulant activity in mouse plasma at 25 uM measures upto 20 mins by aPTT reagent based analysis; format: functional, cell-free
[34] = Selectivity index, ratio of IC50 for PKal (unknown origin) to IC50 for FXIIa (unknown origin)
[35] = tested on: Mus musculus; test: Antiinflammatory activity in carrageenan-induced thrombosis in male BALB/c mouse model assessed as reduction in IL-1 beta level at 20 mg/kg, po by ELISA method; format: functional, organism-based

Coagulation factor X, sequence (P00742 41-179 limits assumed): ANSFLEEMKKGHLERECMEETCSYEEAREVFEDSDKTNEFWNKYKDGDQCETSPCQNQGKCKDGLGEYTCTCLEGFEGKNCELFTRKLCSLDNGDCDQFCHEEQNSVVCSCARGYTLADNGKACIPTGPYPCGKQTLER
Coagulation factor X, sequence (P00742 235-488 limits assumed): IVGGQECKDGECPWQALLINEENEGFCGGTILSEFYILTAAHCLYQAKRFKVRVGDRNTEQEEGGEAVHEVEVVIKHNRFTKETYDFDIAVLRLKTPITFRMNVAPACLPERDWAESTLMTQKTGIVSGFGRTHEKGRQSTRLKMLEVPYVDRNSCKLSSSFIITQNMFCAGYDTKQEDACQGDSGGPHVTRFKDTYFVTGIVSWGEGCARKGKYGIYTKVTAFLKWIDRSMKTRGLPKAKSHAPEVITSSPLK
Plasminogen, sequence (P00747 97-580 limits assumed): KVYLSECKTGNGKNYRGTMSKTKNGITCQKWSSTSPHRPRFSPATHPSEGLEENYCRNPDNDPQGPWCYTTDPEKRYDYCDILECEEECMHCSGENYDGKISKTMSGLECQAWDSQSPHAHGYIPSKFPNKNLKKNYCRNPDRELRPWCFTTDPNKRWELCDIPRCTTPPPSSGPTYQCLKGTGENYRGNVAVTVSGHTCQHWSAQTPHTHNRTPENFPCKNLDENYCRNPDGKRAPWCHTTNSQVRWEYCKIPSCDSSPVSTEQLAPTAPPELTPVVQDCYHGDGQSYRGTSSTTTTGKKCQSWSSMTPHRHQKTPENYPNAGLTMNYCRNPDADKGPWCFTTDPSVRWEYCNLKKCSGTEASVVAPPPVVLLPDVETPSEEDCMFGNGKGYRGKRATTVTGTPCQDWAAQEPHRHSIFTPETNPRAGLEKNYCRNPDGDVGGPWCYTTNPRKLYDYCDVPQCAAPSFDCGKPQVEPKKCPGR
Plasminogen, sequence (P00747 581-810 limits assumed): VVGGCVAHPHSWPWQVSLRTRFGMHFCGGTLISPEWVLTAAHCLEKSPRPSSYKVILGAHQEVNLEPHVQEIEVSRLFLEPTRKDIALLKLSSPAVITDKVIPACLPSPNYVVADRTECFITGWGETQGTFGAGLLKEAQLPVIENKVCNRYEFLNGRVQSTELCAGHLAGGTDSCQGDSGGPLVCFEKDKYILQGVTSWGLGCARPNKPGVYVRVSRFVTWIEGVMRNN
Plasma kallikrein, sequence (P03952 20-390 limits assumed): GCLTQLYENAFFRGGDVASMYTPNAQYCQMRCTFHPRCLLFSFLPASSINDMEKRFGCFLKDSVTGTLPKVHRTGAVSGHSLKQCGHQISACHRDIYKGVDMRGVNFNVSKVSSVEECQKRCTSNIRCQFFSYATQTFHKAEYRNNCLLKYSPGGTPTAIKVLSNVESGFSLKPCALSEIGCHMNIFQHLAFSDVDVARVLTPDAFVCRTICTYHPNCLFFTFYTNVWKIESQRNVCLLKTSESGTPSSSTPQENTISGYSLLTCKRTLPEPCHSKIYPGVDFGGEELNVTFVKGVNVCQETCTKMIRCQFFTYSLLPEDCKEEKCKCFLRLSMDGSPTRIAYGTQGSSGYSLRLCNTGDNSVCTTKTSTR
Plasma kallikrein, sequence (P03952 391-638 limits assumed): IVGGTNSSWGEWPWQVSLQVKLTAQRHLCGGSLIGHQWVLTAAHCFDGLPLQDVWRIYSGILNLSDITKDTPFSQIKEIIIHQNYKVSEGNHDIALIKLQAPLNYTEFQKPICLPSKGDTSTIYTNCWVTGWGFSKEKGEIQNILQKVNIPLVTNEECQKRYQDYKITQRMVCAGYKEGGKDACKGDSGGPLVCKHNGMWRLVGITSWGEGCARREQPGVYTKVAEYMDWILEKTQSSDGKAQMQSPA
Tissue-type plasminogen activator, sequence (P00750 whole entry): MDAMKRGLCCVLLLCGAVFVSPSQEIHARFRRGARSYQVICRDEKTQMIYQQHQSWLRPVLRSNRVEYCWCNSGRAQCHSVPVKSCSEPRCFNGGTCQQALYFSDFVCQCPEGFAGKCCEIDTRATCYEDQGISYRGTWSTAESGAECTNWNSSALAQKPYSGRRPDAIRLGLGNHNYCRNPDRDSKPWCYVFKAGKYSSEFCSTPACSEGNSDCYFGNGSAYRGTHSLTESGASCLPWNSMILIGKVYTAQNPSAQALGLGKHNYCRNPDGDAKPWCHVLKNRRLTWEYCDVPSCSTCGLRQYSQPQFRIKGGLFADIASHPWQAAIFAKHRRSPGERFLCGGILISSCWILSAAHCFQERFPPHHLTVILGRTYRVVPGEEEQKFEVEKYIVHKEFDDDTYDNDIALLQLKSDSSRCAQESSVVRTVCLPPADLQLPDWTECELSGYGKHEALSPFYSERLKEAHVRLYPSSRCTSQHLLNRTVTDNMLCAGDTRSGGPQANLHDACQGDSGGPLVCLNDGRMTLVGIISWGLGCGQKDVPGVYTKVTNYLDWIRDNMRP
Coagulation factor XI, sequence (P03951 19-387 limits assumed): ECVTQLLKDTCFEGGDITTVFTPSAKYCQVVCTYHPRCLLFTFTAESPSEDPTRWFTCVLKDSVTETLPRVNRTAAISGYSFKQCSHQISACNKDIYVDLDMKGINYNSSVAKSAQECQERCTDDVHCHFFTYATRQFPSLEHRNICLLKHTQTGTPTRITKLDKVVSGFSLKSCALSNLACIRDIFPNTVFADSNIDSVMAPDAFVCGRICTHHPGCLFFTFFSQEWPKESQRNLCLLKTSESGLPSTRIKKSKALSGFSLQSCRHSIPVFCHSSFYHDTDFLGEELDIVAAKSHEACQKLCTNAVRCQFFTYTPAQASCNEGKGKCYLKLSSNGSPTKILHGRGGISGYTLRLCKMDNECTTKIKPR
Coagulation factor XI, sequence (P03951 388-625 limits assumed): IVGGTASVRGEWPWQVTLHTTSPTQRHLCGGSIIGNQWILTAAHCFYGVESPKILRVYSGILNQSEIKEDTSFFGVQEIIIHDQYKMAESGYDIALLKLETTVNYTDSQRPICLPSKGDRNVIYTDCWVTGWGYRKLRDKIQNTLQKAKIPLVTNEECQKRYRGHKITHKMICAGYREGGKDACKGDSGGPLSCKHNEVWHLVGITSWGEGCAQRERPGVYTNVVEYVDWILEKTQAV

| IC50 [1] | Ratio IC50 [3] | Stability [5] | Ratio IC50 [7] | Ratio IC50 [11] | pIC50 [12] | Ratio IC50 [14] | pIC50 [15] | pIC50 [20] | Compound | Activity [2] | Activity [4] | Activity [6] | EC1.5 [8] | Activity [9] | Activity [10] | EC1.5 [13] | Activity [16] | Activity [17] | Ratio [18] | Activity [19] | further results |
| --- | --- | --- | --- | --- | --- | --- | --- | --- | --- | --- | --- | --- | --- | --- | --- | --- | --- | --- | --- | --- | --- |
| > 25 µM | > 670 | Stable | > 670 | 910 | < 4.60 | > 670 | < 4.60 | < 4.60 | CC(C)N1CCN(c2ccc(C(=O)n3nc(-c4ccccn4)nc3N)c3ccccc23)CC1 | 542% | Active | inactive | 14 µM | Active | Active | 68 µM | Dose-Dependent Effect | Active | 2 | Dose-Dependent Effect | pIC50 [21]: 4.70; Activity [22]: Dose-Dependent Effect; Ratio IC50 [23]: > 670; Activity [24]: ~30%; Ratio IC50 [25]: > 670; pIC50 [26]: < 4.60; Activity [27]: Non-Toxic; Activity [28]: Active; Activity [29]: Active; pIC50 [30]: < 4.60; Stability [31]: Stable; IC50 [32]: > 25 µM; Activity [33]: Active; Ratio IC50 [34]: > 670; Activity [35]: Active |
| > 25 µM | > 1190 | Stable | > 1190 | 210 | < 4.60 | > 1190 | < 4.60 | < 4.60 | CC(C)N1CCCN(c2ccc(C(=O)n3nc(-c4ccccn4)nc3N)c3ccccc23)CC1 | 905% | Active | inactive | 9 µM | Active | Active | 37 µM | Dose-Dependent Effect | Active | 2 | Dose-Dependent Effect | pIC50 [21]: 5.15; Activity [22]: Dose-Dependent Effect; Ratio IC50 [23]: > 1190; Activity [24]: ~10%; Ratio IC50 [25]: > 1190; pIC50 [26]: < 4.60; Activity [27]: Non-Toxic; Activity [28]: Active; Activity [29]: Active; pIC50 [30]: < 4.60; Stability [31]: Stable; IC50 [32]: > 25 µM; Activity [33]: Active; Ratio IC50 [34]: > 1190; Activity [35]: Active |
